Key:
AZD7648 = compound: Cc1cc2ncnn2cc1Nc1ncc2c(n1)n(C1CCOCC1)c(=O)n2C [AZD7648]; conditions: max 10 µM
In short: (§1)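 In 1536-well plates, cancer cell lines in 7.5 μl DMEM/F12 or RPMI with 10% FBS spent 24 hours at 37°C and 5% CO2 and were then dosed for 72 hours with final DMSO typically 0.2%. Viability was read by CellTiter-Glo 2.0 luminescence and scaled between blank-well and DMSO-well means. The single-agent IC50 was fitted from dose responses using a logistic curve in a non-linear mixed effects model, and that logistic curve had two parameters.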

MK-2206 = compound: NC1(c2ccc(-c3nc4ccn5c(=O)[nH]nc5c4cc3-c3ccccc3)cc2)CCC1 [MK-2206]; conditions: max 10 µM
In short: as §1

SRA737 = compound: N#Cc1cnc(Nc2cc(NC[C@H]3CNCCO3)c(C(F)(F)F)cn2)cn1 [SRA737]; conditions: max 10 µM
In short: as §1

Carboplatin = compound: C1CC(C1)(C(=O)[O-])C(=O)[O-].N.N.[Pt+2] [Carboplatin]; conditions: max 10 µM
In short: as §1

Doxorubicin = compound: COc1cccc2c1C(=O)c1c(O)c3c(c(O)c1C2=O)C[C@@](O)(C(=O)CO)C[C@@H]3O[C@H]1C[C@H](N)[C@H](O)[C@H](C)O1 [Doxorubicin]; conditions: max 1 µM
In short: as §1

Selumetinib = compound: Cn1cnc2c(F)c(Nc3ccc(Br)cc3Cl)c(C(=O)NOCCO)cc21 [Selumetinib]; conditions: max 10 µM
In short: as §1

Savolitinib = compound: C[C@@H](c1ccc2nccn2c1)n1nnc2ncc(-c3cnn(C)c3)nc21 [Savolitinib]; conditions: max 1 µM
In short: as §1

Dasatinib = compound: CC1=C(C(=CC=C1)Cl)NC(=O)C2=CN=C(S2)NC3=CC(=NC(=N3)C)N4CCN(CC4)CCO [Dasatinib]; conditions: max 2 µM
In short: as §1

Taselisib = compound: Cc1nc(-c2cn3c(n2)-c2ccc(-c4cnn(C(C)(C)C(N)=O)c4)cc2OCC3)n(C(C)C)n1 [Taselisib]; conditions: max 10 µM
In short: as §1

AZD1390 = compound: CC(C)n1c(=O)n(C)c2cnc3cc(F)c(-c4ccc(OCCCN5CCCCC5)nc4)cc3c21 [AZD1390]; conditions: max 0.3 µM
In short: as §1

AZD5363 = compound: C1CN(CCC1(C(=O)N[C@@H](CCO)C2=CC=C(C=C2)Cl)N)C3=NC=NC4=C3C=CN4 [AZD5363]; conditions: max 10 µM
In short: as §1

Etoposide = compound: COc1cc([C@@H]2c3cc4c(cc3[C@@H](O[C@@H]3O[C@@H]5CO[C@@H](C)O[C@H]5[C@H](O)[C@H]3O)[C@H]3COC(=O)[C@H]23)OCO4)cc(OC)c1O [Etoposide]; conditions: max 10 µM
In short: as §1

Trametinib = compound: CC(=O)Nc1cccc(-n2c(=O)n(C3CC3)c(=O)c3c(Nc4ccc(I)cc4F)n(C)c(=O)c(C)c32)c1 [Trametinib]; conditions: max 1 µM
In short: as §1

AZD0156 = compound: CN(C)CCCOc1ccc(-c2ccc3ncc4c(c3c2)n(C2CCOCC2)c(=O)n4C)cn1 [AZD0156]; conditions: max 3 µM
In short: as §1

AZD6738 = compound: C[C@@H]1COCCN1C2=NC(=NC(=C2)C3(CC3)[S@](=N)(=O)C)C4=C5C=CNC5=NC=C4 [AZD6738]; conditions: max 10 µM
In short: as §1

Lapatinib = compound: CS(=O)(=O)CCNCc1ccc(-c2ccc3ncnc(Nc4ccc(OCc5cccc(F)c5)c(Cl)c4)c3c2)o1 [Lapatinib]; conditions: max 10 µM
In short: as §1

Paclitaxel = compound: CC(=O)O[C@H]1C(=O)[C@@]2(C)[C@H]([C@H](OC(=O)c3ccccc3)[C@]3(O)C[C@H](OC(=O)[C@H](O)[C@@H](NC(=O)c4ccccc4)c4ccccc4)C(C)=C1C3(C)C)[C@]1(OC(C)=O)CO[C@@H]1C[C@@H]2O [Paclitaxel]; conditions: max 3 µM
In short: as §1

Crizotinib = compound: C[C@@H](Oc1cc(-c2cnn(C3CCNCC3)c2)cnc1N)c1c(Cl)ccc(F)c1Cl [Crizotinib]; conditions: max 10 µM
In short: as §1

Gefitinib = compound: COc1cc2ncnc(Nc3ccc(F)c(Cl)c3)c2cc1OCCCN1CCOCC1 [Gefitinib]; conditions: max 10 µM
In short: as §1

Olaparib = compound: O=C(c1cc(Cc2n[nH]c(=O)c3ccccc23)ccc1F)N1CCN(C(=O)C2CC2)CC1 [Olaparib]; conditions: max 10 µM
In short: as §1

Alisertib = compound: COc1cc(Nc2ncc3c(n2)-c2ccc(Cl)cc2C(c2c(F)cccc2OC)=NC3)ccc1C(=O)O [Alisertib]; conditions: max 10 µM
In short: as §1

Palbociclib = compound: CC(=O)c1c(C)c2cnc(Nc3ccc(N4CCNCC4)cn3)nc2n(C2CCCC2)c1=O [Palbociclib]; conditions: max 10 µM
In short: as §1

Venetoclax = compound: CC1(C)CCC(CN2CCN(c3ccc(C(=O)NS(=O)(=O)c4ccc(NCC5CCOCC5)c([N+](=O)[O-])c4)c(Oc4cnc5[nH]ccc5c4)c3)CC2)=C(c2ccc(Cl)cc2)C1 [Venetoclax]; conditions: max 1 µM
In short: as §1

SG3199 = compound: CC1=CN2[C@@H](C1)C=NC3=CC(=C(C=C3C2=O)OC)OCCCCCOC4=C(C=C5C(=C4)N=C[C@@H]6CC(=CN6C5=O)C)OC [SG3199]; conditions: max 0.001 µM
In short: as §1

AZD2811 = compound: CCN(CCO)CCCOc1ccc2c(Nc3cc(CC(=O)Nc4cccc(F)c4)[nH]n3)ncnc2c1 [AZD2811]; conditions: max 1 µM
In short: as §1

AZD1775 = compound: C=CCn1c(=O)c2cnc(Nc3ccc(N4CCN(C)CC4)cc3)nc2n1-c1cccc(C(C)(C)O)n1 [AZD1775]; conditions: max 3 µM
In short: as §1

Prexasertib = compound: COc1cccc(OCCCN)c1-c1cc(Nc2cnc(C#N)cn2)n[nH]1 [Prexasertib]; conditions: max 1 µM
In short: as §1

[1] = compound: O=C(Nc1ccc2[nH]nc(-c3ccncc3)c2c1)[C@@H]1CCN(CC(=O)N2CCN(c3ccc(-c4ncccn4)cc3)CC2)C1; conditions: max 5 µM
In short: as §1

Gemcitabine = compound: Nc1ccn([C@@H]2O[C@H](CO)[C@@H](O)C2(F)F)c(=O)n1 [Gemcitabine]; conditions: max 0.3 µM
In short: as §1

AZD8186 = compound: C[C@@H](Nc1cc(F)cc(F)c1)c1cc(C(=O)N(C)C)cc2c(=O)cc(N3CCOCC3)oc12 [AZD8186]; conditions: max 10 µM
In short: as §1

AZD5153 = compound: COc1nnc2ccc(N3CCC(c4ccc(OCCN5CCN(C)C(=O)[C@H]5C)cc4)CC3)nn12 [AZD5153]; conditions: max 1 µM
In short: as §1

5-Fluorouracil = compound: O=c1[nH]cc(F)c(=O)[nH]1 [5-Fluorouracil]; conditions: max 20 µM
In short: as §1

SN-38 = compound: CCc1c2c(nc3ccc(O)cc13)-c1cc3c(c(=O)n1C2)COC(=O)[C@]3(O)CC [SN-38]; conditions: max 0.3 µM
In short: as §1

AZD5991 = compound: Cc1c2c(nn1C)CSCc1cc(n(C)n1)CSc1cc(c3ccccc3c1)OCCCc1c(C(=O)O)n(C)c3c-2c(Cl)ccc13 [AZD5991]; conditions: max 1 µM
In short: as §1

AZD4320 = compound: CN(CC[C@H](CSC1=CC=CC=C1)NC2=C(C=C(C=C2)S(=O)(=O)NC(=O)C3=CC=C(C=C3)N4CCC(CC4)[C@H](C5=CC=CC=C5C6=CC=C(C=C6)Cl)O)S(=O)(=O)C(F)(F)F)CCO [AZD4320]; conditions: max 1 µM
In short: as §1

Cell Line | IC50, cell viability 72 h (AZD7648) | IC50, cell viability 72 h (MK-2206) | IC50, cell viability 72 h (SRA737) | IC50, cell viability 72 h (Carboplatin) | IC50, cell viability 72 h (Doxorubicin) | IC50, cell viability 72 h (Selumetinib) | IC50, cell viability 72 h (Savolitinib) | IC50, cell viability 72 h (Dasatinib) | IC50, cell viability 72 h (Taselisib) | IC50, cell viability 72 h (AZD1390) | IC50, cell viability 72 h (AZD5363) | IC50, cell viability 72 h (Etoposide) | IC50, cell viability 72 h (Trametinib) | IC50, cell viability 72 h (AZD0156) | IC50, cell viability 72 h (AZD6738) | IC50, cell viability 72 h (Lapatinib) | IC50, cell viability 72 h (Paclitaxel) | IC50, cell viability 72 h (Crizotinib) | IC50, cell viability 72 h (Gefitinib) | IC50, cell viability 72 h (Olaparib) | IC50, cell viability 72 h (Alisertib) | IC50, cell viability 72 h (Palbociclib) | IC50, cell viability 72 h (Venetoclax) | IC50, cell viability 72 h (SG3199) | IC50, cell viability 72 h (AZD2811) | IC50, cell viability 72 h (AZD1775) | IC50, cell viability 72 h (Prexasertib) | IC50, cell viability 72 h [1] | IC50, cell viability 72 h (Gemcitabine) | IC50, cell viability 72 h (AZD8186) | IC50, cell viability 72 h (AZD5153) | IC50, cell viability 72 h (5-Fluorouracil) | IC50, cell viability 72 h (SN-38) | IC50, cell viability 72 h (AZD5991) | IC50, cell viability 72 h (AZD4320)
NCI-H1651 (Lung Adenocarcinoma) | > 10 µM | > 10 µM | > 10 µM | > 10 µM | 0.788 µM | > 10 µM | > 1 µM | > 2 µM | > 10 µM | > 0.3 µM | > 10 µM | 6.01 µM | > 1 µM | > 3 µM | > 10 µM | > 10 µM | 0.0217 µM | > 10 µM | > 10 µM | > 10 µM | > 10 µM | > 10 µM | > 1 µM | > 0.001 µM | > 1 µM | 0.779 µM | 0.0831 µM | > 5 µM | > 0.3 µM | > 10 µM | > 1 µM | > 20 µM | 0.0221 µM | > 1 µM | > 1 µM
NCI-H1703 (Squamous Cell Lung Carcinoma) | > 10 µM | 2.83 µM | 1.17 µM | > 10 µM | 0.142 µM | > 10 µM | > 1 µM | 0.0478 µM | 0.625 µM | > 0.3 µM | 6.66 µM | 1.64 µM | > 1 µM | > 3 µM | 0.917 µM | > 10 µM | 0.00586 µM | 8.01 µM | > 10 µM | > 10 µM | 6.21 µM | 9.73 µM | > 1 µM | > 0.001 µM | > 1 µM | 0.222 µM | 0.00859 µM | > 5 µM | 0.00423 µM | 4.06 µM | 0.4 µM | > 20 µM | 0.0367 µM | 0.393 µM | > 1 µM
NCI-H2087 (Lung Adenocarcinoma) | > 10 µM | > 10 µM | > 10 µM | > 10 µM | > 1 µM | 6.12 µM | > 1 µM | > 2 µM | > 10 µM | > 0.3 µM | > 10 µM | > 10 µM | 0.35 µM | > 3 µM | > 10 µM | > 10 µM | 0.225 µM | > 10 µM | > 10 µM | > 10 µM | > 10 µM | > 10 µM | > 1 µM | > 0.001 µM | > 1 µM | > 3 µM | 0.0962 µM | 2.2 µM | 0.255 µM | > 10 µM | > 1 µM | > 20 µM | 0.0188 µM | > 1 µM | > 1 µM

Reference: the supplement of paper PMC11061612
